# Tests used:
# [1] = system: normal human lung fibroblast MRC-5 cells; experiment: Cytotoxic activity on normal cells, MTT viability assay; format: cell-based; conditions: for Inhibitory % / Viability %: Table S14
# Method: In this regard, the selectivity index (SI) was calculated as the ratio of cytotoxic effect on the normal cell line to the cytotoxic effect on the cancer cell line.
# (§1) Method S4 Evaluation of Cytotoxic activity
# (§2) The cells were propagated in Dulbecco’s modified Eagle’s medium (DMEM) supplemented with 10% heat-inactivated fetal bovine serum, 1 % L-glutamine, HEPES buffer and 50µg/mL Gentamycin. All cells were maintained at 37 °C in a humidified atmosphere with 5% CO2 and were subcultured tw o times a week.
# (§3) Cytotoxicity evaluation using viability assay
# (§4) For cytotoxicity assay, the cells were seeded in 96-well plate at a cell concentration of 1×10^4 cells per well in 100µl of growth medium. Fresh medium containing different concentrations of the test sample was added after 24 h of seeding. Serial two-fold dilutions of the tested chemical compound were added to confluent cell monolayers dispensed into 96-well, flat-bottomed microtiter plates (Falcon, NJ, USA) using a multichannel pipette. The microtiter plates were incubated at 37 °C in a humidified incubator with 5% CO2 for a period of 24 h. Three wells were used for each concentration of the test sample. Control cells were incubated without test sample and with or without DMSO. The little percentage of DMSO present in the […]
# (§5) cells for at 37°C, for 24 h, the viabl e cells yield was determined by the MTT test.
# (§6) Briefly, the media was removed from the 96 well plate and replaced with 100 µL of fresh culture DMEM m edium without phenol red then 10 µL of the 12 mM MTT stock solution (5 mg of MTT in 1 mL of PBS) to each well including the untreated controls. The 96 well plates were then incubated at 37°C and 5% CO2 for 4 hours. An 85 µL aliquot of the media was removed from t he wells, and 50 µL of DMSO was added to each well and mixed thoroughly with the pipette and incubated at 37°C for 10 min. Then, the optical density was measured at 590 nm with the microplate reader (SunRise, TECAN, Inc, USA) to determine the number of viable cells and the percentage of viability was calculat ed as [(ODt/ODc)]x100% where ODt i s the mean optical density of wells treated with the tested s ample and ODc is the mean optical density of untreated cells. The relation between surviving cells and drug concentration is plotted to get the survival curve of each tumor cell line after treatment with the specified compound. The 50% inhibitory concentration (IC50), the concentration required to cause t oxic effects in 50% of intact cells, was estimated from graphic plots of the dose response curve for each conc. using Graphpad Prism software (San Diego, […]
# [2] = DPPH radical scavenging assay; format: biochemical; conditions: for IC50 (DPPH scavenging): antioxidant activity
# Method: The studied Cu(II) complexes and the free ligands were assessed for their antioxidant activity levels using an α,α-diphenyl-β-picrylhydrazyl (DPPH) scavenging assay, and the results are given in Table 7. […] The results indicated better antioxidant activity for DMAT than for DMOHT, indicating the effect of the substituent at the phenyl moiety on the antioxidant activity level of the free ligand. […] On the other hand, the Cu(II) complexes have improved levels of antioxidant activity compared to the free ligands.
# Method S3 DPPH Radical Scavenging Activity:
# Freshly prepared (0.004 %w/v) methanol solution of 2,2-diphenyl-1-pi crylhydrazyl (DPPH) radical was prepared and stored at 10 °C in dark place. A methanolic solution of the test compound was prepared using the same procedure. A 40 uL aliquot of the methanol solution was added to 3mL of DPPH solution. Absorbance measurements were recorded immediately with a UV-visible spectrophotometer (Milton Roy, Spectronic 1201). The decrease in absorbance at 515 nm was determined continuously, with data being recorded at 1 min intervals until the absorbance stabilized (16 min). The absorbance of the DPPH radical without antioxidant (control) and the reference compound ascorbic acid were also measured.
# All the determinations were performed in three replicates and averaged. The percentage inhibition (PI) of the DPPH radical was calculated according to the […]
# PI = [{(AC- AT)/ AC} x 100] (1)
# Where AC = Absorbance of the control at t = 0 min and AT = absorbance of the sample+DPPH at t = 16 min. The 50% inhibitory concentration (IC50), the concentration required t o inhibit DPPH radical by 50%, was estimated from graphic plots of the dose respons e curve.
# [3] = system: lung carcinoma A-549 cell line; experiment: Anticancer activity, MTT viability assay; format: cell-based; conditions: for SI = CC50/IC50: CC50 (MRC-5) / IC50 (A-549); for IC50: A-549 cells, 24 h, MTT; for Inhibitory % / Viability %: Table S9
# Method: The studied compounds were examined for their anticancer activity against the lung carcinoma A-549 cell line.
# as §1, §2, §3, §4, §5, §6
compound,measurement,setting,value
"CC(=NNc1nc(N2CCOCC2)nc(N2CCOCC2)n1)c1ccccc1O [DMOHT, 2-(1-(2-(4,6-dimorpholino-1,3,5-triazin-2-yl)hydrazono)ethyl)phenol]",inhibition at 2.5 µM,"[1]; Homo sapiens, MRC5, MRC-5, sample conc. 2.5 µM, Table S12, read-out: Inhibitory %",0%
same,inhibition at 5 µM,"[1]; Homo sapiens, MRC5, MRC-5, sample conc. 5.0 µM, Table S12, read-out: Inhibitory %",0%
same,inhibition at 9.8 µM,"[1]; Homo sapiens, MRC5, MRC-5, sample conc. 9.8 µM, Table S12, read-out: Inhibitory %",0%
same,inhibition at 19.5 µM,"[1]; Homo sapiens, MRC5, MRC-5, sample conc. 19.5 µM, Table S12, read-out: Inhibitory %",0%
same,inhibition at 39.1 µM,"[1]; Homo sapiens, MRC5, MRC-5, sample conc. 39.1 µM, Table S12, read-out: Inhibitory %",0%
same,inhibition at 78.2 µM,"[1]; Homo sapiens, MRC5, MRC-5, sample conc. 78.2 µM, Table S12, read-out: Inhibitory %",0%
same,inhibition at 156.5 µM,"[1]; Homo sapiens, MRC5, MRC-5, sample conc. 156.5 µM, Table S12, read-out: Inhibitory %",2.14%
same,inhibition at 312.9 µM,"[1]; Homo sapiens, MRC5, MRC-5, sample conc. 312.9 µM, Table S12, read-out: Inhibitory %",10.4%
same,inhibition at 625.8 µM,"[1]; Homo sapiens, MRC5, MRC-5, sample conc. 625.8 µM, Table S12, read-out: Inhibitory %",32.4%
same,inhibition at 1251.7 µM,"[1]; Homo sapiens, MRC5, MRC-5, sample conc. 1251.7 µM, Table S12, read-out: Inhibitory %",61.8%
same,DPPH Scavenging %,[2]; Conc. 2.5 μg/mL,5.73%
same,DPPH Scavenging %,[2]; Conc. 5 μg/mL,10.48%
same,DPPH Scavenging %,[2]; Conc. 10 μg/mL,19.87%
same,DPPH Scavenging %,[2]; Conc. 20 μg/mL,31.95%
same,DPPH Scavenging %,[2]; Conc. 40 μg/mL,47.09%
same,DPPH Scavenging %,[2]; Conc. 80 μg/mL,61.32%
same,DPPH Scavenging %,[2]; Conc. 160 μg/mL,73.64%
same,DPPH Scavenging %,[2]; Conc. 320 μg/mL,84.93%
same,DPPH Scavenging %,[2]; Conc. 640 μg/mL,88.54%
same,DPPH Scavenging %,[2]; Conc. 1280 μg/mL,93.87%
same,IC50 (DPPH scavenging),[2],48.2 ± 1.08 µg/mL
same,SI = CC50/IC50,[3],1.77
same,viability at 2.5 µM,"[3]; Homo sapiens, A549, A-549, sample conc. 2.5 µM, Table S7",100%
same,inhibition at 2.5 µM,"[3]; Homo sapiens, A549, A-549, sample conc. 2.5 µM, Table S7, read-out: Inhibitory %",0%
same,viability at 5 µM,"[3]; Homo sapiens, A549, A-549, sample conc. 5.0 µM, Table S7",100%
same,inhibition at 5 µM,"[3]; Homo sapiens, A549, A-549, sample conc. 5.0 µM, Table S7, read-out: Inhibitory %",0%
same,viability at 9.8 µM,"[3]; Homo sapiens, A549, A-549, sample conc. 9.8 µM, Table S7",100%
same,inhibition at 9.8 µM,"[3]; Homo sapiens, A549, A-549, sample conc. 9.8 µM, Table S7, read-out: Inhibitory %",0%
same,viability at 19.5 µM,"[3]; Homo sapiens, A549, A-549, sample conc. 19.5 µM, Table S7",100%
same,inhibition at 19.5 µM,"[3]; Homo sapiens, A549, A-549, sample conc. 19.5 µM, Table S7, read-out: Inhibitory %",0%
same,viability at 39.1 µM,"[3]; Homo sapiens, A549, A-549, sample conc. 39.1 µM, Table S7",100%
same,inhibition at 39.1 µM,"[3]; Homo sapiens, A549, A-549, sample conc. 39.1 µM, Table S7, read-out: Inhibitory %",0%
same,viability at 78.2 µM,"[3]; Homo sapiens, A549, A-549, sample conc. 78.2 µM, Table S7",98.2%
same,inhibition at 78.2 µM,"[3]; Homo sapiens, A549, A-549, sample conc. 78.2 µM, Table S7, read-out: Inhibitory %",1.75%
same,viability at 156.5 µM,"[3]; Homo sapiens, A549, A-549, sample conc. 156.5 µM, Table S7",90.7%
same,inhibition at 156.5 µM,"[3]; Homo sapiens, A549, A-549, sample conc. 156.5 µM, Table S7, read-out: Inhibitory %",9.33%
same,viability at 312.9 µM,"[3]; Homo sapiens, A549, A-549, sample conc. 312.9 µM, Table S7",75.1%
same,inhibition at 312.9 µM,"[3]; Homo sapiens, A549, A-549, sample conc. 312.9 µM, Table S7, read-out: Inhibitory %",24.9%
same,viability at 625.8 µM,"[3]; Homo sapiens, A549, A-549, sample conc. 625.8 µM, Table S7",43.9%
same,inhibition at 625.8 µM,"[3]; Homo sapiens, A549, A-549, sample conc. 625.8 µM, Table S7, read-out: Inhibitory %",56.1%
same,viability at 1251.7 µM,"[3]; Homo sapiens, A549, A-549, sample conc. 1251.7 µM, Table S7",21.5%
same,inhibition at 1251.7 µM,"[3]; Homo sapiens, A549, A-549, sample conc. 1251.7 µM, Table S7, read-out: Inhibitory %",78.5%
same,IC50,"[3]; Homo sapiens, A549",565 µM
"CC(=NNc1nc(N2CCOCC2)nc(N2CCOCC2)n1)c1ccccc1[O-].O=[N+]([O-])[O-].[Cu+2] [Complex 3, [Cu(DMOT)(NO3)]]",Inhibitory %,"[1]; MRC-5, sample conc. 1.9 µM",0%
same,Viability %,"[1]; MRC-5, sample conc. 1.9 µM",100%
same,Inhibitory %,"[1]; MRC-5, sample conc. 3.8 µM",0%
same,Viability %,"[1]; MRC-5, sample conc. 3.8 µM",100%
same,Inhibitory %,"[1]; MRC-5, sample conc. 7.4 µM",0%
same,Viability %,"[1]; MRC-5, sample conc. 7.4 µM",100%
same,Inhibitory %,"[1]; MRC-5, sample conc. 14.9 µM",1.37%
same,Viability %,"[1]; MRC-5, sample conc. 14.9 µM",98.63%
same,Inhibitory %,"[1]; MRC-5, sample conc. 29.8 µM",10.83%
same,Viability %,"[1]; MRC-5, sample conc. 29.8 µM",89.17%
same,Inhibitory %,"[1]; MRC-5, sample conc. 59.6 µM",23.08%
same,Viability %,"[1]; MRC-5, sample conc. 59.6 µM",76.92%
same,Inhibitory %,"[1]; MRC-5, sample conc. 119.3 µM",42.86%
same,Viability %,"[1]; MRC-5, sample conc. 119.3 µM",57.14%
same,Inhibitory %,"[1]; MRC-5, sample conc. 238.6 µM",58.72%
same,Viability %,"[1]; MRC-5, sample conc. 238.6 µM",41.28%
same,Inhibitory %,"[1]; MRC-5, sample conc. 477.1 µM",79.35%
same,Viability %,"[1]; MRC-5, sample conc. 477.1 µM",20.65%
same,Inhibitory %,"[1]; MRC-5, sample conc. 954.2 µM",92.46%
same,Viability %,"[1]; MRC-5, sample conc. 954.2 µM",7.54%
same,CC50,"[1]; MRC-5 cells, 24 h, MTT",173 µM
same,DPPH Scavenging %,[2]; Conc. 2.5 μg/mL,11.46%
same,DPPH Scavenging %,[2]; Conc. 5 μg/mL,18.73%
same,DPPH Scavenging %,[2]; Conc. 10 μg/mL,32.95%
same,DPPH Scavenging %,[2]; Conc. 20 μg/mL,51.32%
same,DPPH Scavenging %,[2]; Conc. 40 μg/mL,68.9%
same,DPPH Scavenging %,[2]; Conc. 80 μg/mL,81.47%
same,DPPH Scavenging %,[2]; Conc. 160 μg/mL,85.92%
same,DPPH Scavenging %,[2]; Conc. 320 μg/mL,90.81%
same,DPPH Scavenging %,[2]; Conc. 640 μg/mL,94.29%
same,DPPH Scavenging %,[2]; Conc. 1280 μg/mL,95.76%
same,IC50 (DPPH scavenging),[2],19.31 ± 0.73 µg/mL
same,Inhibitory %,"[3]; A-549, sample conc. 1.9 µM",0%
same,Viability %,"[3]; A-549, sample conc. 1.9 µM",100%
same,Inhibitory %,"[3]; A-549, sample conc. 3.8 µM",1.37%
same,Viability %,"[3]; A-549, sample conc. 3.8 µM",98.63%
same,Inhibitory %,"[3]; A-549, sample conc. 7.4 µM",7.25%
same,Viability %,"[3]; A-549, sample conc. 7.4 µM",92.75%
same,Inhibitory %,"[3]; A-549, sample conc. 14.9 µM",19.54%
same,Viability %,"[3]; A-549, sample conc. 14.9 µM",80.46%
same,Inhibitory %,"[3]; A-549, sample conc. 29.8 µM",32.81%
same,Viability %,"[3]; A-549, sample conc. 29.8 µM",67.19%
same,Inhibitory %,"[3]; A-549, sample conc. 59.6 µM",50.72%
same,Viability %,"[3]; A-549, sample conc. 59.6 µM",49.28%
same,Inhibitory %,"[3]; A-549, sample conc. 119.3 µM",63.38%
same,Viability %,"[3]; A-549, sample conc. 119.3 µM",36.62%
same,Inhibitory %,"[3]; A-549, sample conc. 238.6 µM",76.06%
same,Viability %,"[3]; A-549, sample conc. 238.6 µM",23.94%
same,Inhibitory %,"[3]; A-549, sample conc. 477.1 µM",88.72%
same,Viability %,"[3]; A-549, sample conc. 477.1 µM",11.28%
same,Inhibitory %,"[3]; A-549, sample conc. 954.2 µM",95.13%
same,Viability %,"[3]; A-549, sample conc. 954.2 µM",4.87%
same,IC50,[3],58.3 µM
same,SI = CC50/IC50,[3],2.96
same,SI = CC50/IC50,[3]; listed as 3,2.97
